The target of experiment [1] is T1, 5-hydroxytryptamine receptor 2B (Homo sapiens, UniProt P41595). The experiment is classed as functional, cell-based.
The target in another experiment is Acetylcholinesterase (Homo sapiens, UniProt P22303). It counts as functional.
In the next experiment the target is D(3) dopamine receptor (Homo sapiens, UniProt P35462).
Experiment [2] concerns the target Prostaglandin G/H synthase 1 (Homo sapiens, UniProt P23219). The experiment is classed as functional.
Another experiment has as its target T2, Thromboxane A2 receptor (Homo sapiens, UniProt P21731).
T2 sequence (P21731 whole entry): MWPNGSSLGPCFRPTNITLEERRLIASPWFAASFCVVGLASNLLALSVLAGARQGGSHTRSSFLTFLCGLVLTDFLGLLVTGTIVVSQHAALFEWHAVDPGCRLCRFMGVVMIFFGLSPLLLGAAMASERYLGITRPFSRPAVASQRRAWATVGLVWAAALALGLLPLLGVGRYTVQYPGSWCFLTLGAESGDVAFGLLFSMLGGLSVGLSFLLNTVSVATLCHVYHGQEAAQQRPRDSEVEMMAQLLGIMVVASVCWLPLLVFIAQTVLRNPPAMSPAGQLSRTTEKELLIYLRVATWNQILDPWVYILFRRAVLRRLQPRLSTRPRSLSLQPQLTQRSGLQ
The experiment is classed as functional, cell-based.

Experiment [3] addresses 3',5'-cyclic-AMP phosphodiesterase 4A (Homo sapiens, UniProt P27815). It counts as functional.
Experiment [4] addresses T3, Muscarinic acetylcholine receptor M2 (Homo sapiens, UniProt P08172).
T3 sequence (P08172 whole entry): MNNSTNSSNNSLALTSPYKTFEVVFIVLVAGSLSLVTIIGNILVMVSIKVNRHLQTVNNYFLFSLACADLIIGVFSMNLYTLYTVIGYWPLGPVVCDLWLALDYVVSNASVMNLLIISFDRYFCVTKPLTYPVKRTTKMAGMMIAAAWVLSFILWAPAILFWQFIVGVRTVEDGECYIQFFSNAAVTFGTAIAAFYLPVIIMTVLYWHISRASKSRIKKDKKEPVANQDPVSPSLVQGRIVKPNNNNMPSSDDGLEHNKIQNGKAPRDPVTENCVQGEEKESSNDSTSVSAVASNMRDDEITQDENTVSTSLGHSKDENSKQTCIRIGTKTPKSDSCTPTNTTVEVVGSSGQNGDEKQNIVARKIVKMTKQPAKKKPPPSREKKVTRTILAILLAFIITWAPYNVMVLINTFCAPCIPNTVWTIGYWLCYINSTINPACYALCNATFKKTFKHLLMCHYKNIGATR

The target in another experiment is Prothrombin (Homo sapiens, UniProt P00734). The experiment is classed as functional.
The target of experiment [5] is T1, 5-hydroxytryptamine receptor 2B. It counts as functional, cell-based. This is another data set of the same source.
The next experiment has as its target T4, Glucocorticoid receptor (Homo sapiens, UniProt P04150).
T4 sequence (P04150 whole entry): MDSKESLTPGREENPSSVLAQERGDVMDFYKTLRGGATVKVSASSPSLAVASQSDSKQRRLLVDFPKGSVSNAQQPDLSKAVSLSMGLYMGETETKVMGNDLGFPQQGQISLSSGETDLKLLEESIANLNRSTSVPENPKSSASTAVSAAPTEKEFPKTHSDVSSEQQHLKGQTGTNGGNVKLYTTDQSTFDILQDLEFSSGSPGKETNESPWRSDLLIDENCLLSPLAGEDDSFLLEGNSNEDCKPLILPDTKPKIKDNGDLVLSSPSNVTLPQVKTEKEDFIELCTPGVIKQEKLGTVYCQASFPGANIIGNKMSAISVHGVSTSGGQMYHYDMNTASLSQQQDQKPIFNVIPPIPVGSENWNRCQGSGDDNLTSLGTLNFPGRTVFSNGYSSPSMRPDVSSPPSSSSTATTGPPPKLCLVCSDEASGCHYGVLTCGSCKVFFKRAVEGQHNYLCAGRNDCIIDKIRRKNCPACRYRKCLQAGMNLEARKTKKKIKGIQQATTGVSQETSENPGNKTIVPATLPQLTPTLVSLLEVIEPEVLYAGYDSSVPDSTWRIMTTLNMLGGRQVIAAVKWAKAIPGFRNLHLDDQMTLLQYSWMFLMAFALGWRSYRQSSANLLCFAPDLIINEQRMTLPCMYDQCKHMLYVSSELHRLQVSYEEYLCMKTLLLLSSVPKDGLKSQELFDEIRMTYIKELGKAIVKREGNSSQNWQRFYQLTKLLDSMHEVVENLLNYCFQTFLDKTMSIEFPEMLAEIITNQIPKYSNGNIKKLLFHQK

For experiment [6], the target named is T5, Alpha-1A adrenergic receptor (Homo sapiens, UniProt P35348).
T5 sequence (P35348 whole entry): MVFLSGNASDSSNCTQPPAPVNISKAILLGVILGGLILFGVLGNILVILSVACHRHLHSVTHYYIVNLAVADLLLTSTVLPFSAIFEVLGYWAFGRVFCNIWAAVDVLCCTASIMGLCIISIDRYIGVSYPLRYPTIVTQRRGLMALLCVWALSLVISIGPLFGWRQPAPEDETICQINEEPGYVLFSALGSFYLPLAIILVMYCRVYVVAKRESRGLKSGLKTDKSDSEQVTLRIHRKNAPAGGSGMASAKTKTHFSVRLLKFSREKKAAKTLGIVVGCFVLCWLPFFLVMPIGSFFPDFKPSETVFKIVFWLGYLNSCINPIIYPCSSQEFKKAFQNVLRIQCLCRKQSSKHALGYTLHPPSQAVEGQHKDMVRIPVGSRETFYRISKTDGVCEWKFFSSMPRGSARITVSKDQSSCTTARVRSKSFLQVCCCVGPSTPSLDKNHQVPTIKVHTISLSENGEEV
The experiment is classed as functional, cell-based.

The next experiment deals with Vasopressin V1a receptor (Homo sapiens, UniProt P37288).

Some results are limits rather than exact numbers.
Also: assay procedure not described here.

D(3) dopamine receptor, sequence (P35462 whole entry): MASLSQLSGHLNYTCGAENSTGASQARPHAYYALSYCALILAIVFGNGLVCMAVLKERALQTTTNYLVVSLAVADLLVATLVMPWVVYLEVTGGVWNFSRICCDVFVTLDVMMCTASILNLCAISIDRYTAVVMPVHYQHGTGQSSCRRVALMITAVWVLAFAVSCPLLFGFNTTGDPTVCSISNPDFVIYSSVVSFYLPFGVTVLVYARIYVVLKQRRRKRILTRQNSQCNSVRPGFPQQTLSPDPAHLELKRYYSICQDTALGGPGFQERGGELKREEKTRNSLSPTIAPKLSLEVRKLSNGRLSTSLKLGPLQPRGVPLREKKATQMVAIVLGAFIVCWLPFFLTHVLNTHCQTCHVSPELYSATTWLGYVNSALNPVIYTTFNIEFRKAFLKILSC
T1 sequence (P41595 whole entry): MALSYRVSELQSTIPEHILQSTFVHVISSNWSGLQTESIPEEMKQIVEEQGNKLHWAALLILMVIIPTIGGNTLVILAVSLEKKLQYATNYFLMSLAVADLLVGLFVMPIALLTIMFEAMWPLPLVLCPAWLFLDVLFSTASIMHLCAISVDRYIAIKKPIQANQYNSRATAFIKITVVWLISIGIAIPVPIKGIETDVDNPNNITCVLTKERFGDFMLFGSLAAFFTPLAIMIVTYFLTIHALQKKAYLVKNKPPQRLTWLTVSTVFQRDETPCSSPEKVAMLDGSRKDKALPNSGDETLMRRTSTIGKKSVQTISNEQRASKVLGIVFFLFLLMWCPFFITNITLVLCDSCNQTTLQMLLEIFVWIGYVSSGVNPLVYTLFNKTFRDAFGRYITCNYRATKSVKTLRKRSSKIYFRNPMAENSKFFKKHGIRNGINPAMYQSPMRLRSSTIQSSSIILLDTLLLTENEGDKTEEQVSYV
Vasopressin V1a receptor, sequence (P37288 whole entry): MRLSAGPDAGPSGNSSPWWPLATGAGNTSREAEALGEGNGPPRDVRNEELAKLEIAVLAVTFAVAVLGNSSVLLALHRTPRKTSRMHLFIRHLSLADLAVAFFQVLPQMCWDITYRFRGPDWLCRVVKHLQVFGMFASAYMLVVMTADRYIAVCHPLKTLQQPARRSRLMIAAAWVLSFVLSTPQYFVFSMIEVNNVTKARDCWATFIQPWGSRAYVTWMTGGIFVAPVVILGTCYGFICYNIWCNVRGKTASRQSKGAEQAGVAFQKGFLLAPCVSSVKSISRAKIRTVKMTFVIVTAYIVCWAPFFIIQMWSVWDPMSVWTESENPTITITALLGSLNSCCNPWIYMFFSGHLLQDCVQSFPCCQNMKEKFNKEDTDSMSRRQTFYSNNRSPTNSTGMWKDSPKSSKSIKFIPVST
Prostaglandin G/H synthase 1, sequence (P23219 whole entry): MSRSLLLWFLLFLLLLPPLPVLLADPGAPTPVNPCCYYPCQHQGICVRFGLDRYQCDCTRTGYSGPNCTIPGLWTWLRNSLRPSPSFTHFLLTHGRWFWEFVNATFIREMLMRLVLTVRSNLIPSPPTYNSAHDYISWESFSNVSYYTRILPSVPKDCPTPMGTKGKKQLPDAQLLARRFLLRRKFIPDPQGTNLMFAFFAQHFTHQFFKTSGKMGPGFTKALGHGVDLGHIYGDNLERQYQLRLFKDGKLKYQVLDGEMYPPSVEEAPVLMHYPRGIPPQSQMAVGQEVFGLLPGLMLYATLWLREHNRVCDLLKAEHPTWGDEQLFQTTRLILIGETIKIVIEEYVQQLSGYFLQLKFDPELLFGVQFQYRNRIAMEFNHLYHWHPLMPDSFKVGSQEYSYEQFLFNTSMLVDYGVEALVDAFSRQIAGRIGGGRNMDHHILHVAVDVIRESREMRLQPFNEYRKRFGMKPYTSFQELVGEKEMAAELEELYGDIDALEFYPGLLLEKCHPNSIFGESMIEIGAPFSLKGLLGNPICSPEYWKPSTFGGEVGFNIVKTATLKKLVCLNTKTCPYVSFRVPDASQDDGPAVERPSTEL
3',5'-cyclic-AMP phosphodiesterase 4A, sequence (P27815 whole entry): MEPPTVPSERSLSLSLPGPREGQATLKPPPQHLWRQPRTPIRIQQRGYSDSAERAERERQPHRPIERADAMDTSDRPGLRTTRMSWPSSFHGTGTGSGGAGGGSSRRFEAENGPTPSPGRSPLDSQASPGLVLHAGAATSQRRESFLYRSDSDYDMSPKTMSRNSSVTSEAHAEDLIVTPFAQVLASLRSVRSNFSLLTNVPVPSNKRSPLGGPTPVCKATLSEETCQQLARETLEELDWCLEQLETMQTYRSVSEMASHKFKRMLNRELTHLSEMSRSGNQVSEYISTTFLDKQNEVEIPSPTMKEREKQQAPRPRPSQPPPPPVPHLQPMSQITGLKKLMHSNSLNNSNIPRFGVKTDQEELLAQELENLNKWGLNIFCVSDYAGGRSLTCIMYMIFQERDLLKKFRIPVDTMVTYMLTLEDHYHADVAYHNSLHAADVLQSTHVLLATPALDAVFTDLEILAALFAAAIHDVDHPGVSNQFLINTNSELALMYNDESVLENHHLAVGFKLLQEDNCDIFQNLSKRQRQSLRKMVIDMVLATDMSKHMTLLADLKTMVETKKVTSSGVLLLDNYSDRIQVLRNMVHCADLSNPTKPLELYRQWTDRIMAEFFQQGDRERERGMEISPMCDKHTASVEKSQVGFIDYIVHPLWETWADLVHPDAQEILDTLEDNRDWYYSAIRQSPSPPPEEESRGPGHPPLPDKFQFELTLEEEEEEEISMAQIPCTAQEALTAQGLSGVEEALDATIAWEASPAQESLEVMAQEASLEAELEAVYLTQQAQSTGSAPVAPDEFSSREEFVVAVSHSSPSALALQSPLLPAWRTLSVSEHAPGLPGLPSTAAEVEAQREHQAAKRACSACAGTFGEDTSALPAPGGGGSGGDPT
Acetylcholinesterase, sequence (P22303 whole entry): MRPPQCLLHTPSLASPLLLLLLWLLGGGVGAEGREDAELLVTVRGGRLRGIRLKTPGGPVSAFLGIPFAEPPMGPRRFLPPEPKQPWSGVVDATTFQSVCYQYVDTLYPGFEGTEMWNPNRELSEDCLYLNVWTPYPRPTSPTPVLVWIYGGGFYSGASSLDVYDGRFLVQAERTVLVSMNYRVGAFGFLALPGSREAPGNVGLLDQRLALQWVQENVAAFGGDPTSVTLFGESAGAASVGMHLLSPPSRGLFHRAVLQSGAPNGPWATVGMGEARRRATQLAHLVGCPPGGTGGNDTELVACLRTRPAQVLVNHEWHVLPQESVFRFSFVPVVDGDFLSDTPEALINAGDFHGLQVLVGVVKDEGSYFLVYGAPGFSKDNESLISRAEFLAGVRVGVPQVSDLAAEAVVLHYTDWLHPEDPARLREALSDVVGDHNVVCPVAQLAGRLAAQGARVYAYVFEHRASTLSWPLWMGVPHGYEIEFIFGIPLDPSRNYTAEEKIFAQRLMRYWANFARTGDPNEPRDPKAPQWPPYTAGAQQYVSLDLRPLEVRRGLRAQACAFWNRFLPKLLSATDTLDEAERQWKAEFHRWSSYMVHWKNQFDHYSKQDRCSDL

For `CC(C)N(CCNC(=O)CN1CCCC1=O)C(C)C`, the AC50 (in [1]; on Acetylcholinesterase; at D(3) dopamine receptor; in [2]; at Thromboxane A2 receptor; in [3]) was over 30 µM throughout. For the same compound, the AC50 (in experiment [4]; at Prothrombin) was over 30 µM in each case.

As for `Cc1cc(N)c2ccccc2[n+]1CCCCCCCCCC[n+]1c(C)cc(N)c2ccccc21`, the AC50 (commonly the concentration at which the activity in the assay is half-maximal) on Acetylcholinesterase was 0.0264 µM; on D(3) dopamine receptor, 0.0798 µM; in experiment [2], 14.8 µM; at Thromboxane A2 receptor, over 30 µM; in experiment [3], 3.16 µM; in [4], 0.0497 µM. For the same compound, the AC50 on Prothrombin amounted to 28.8 µM.

In the case of `CCOC(=O)[C@H](CCc1ccccc1)N[C@@H](C)C(=O)N(CC(=O)O)C1Cc2ccccc2C1`, the AC50 (in experiment [1]; on Acetylcholinesterase; at D(3) dopamine receptor; in experiment [2]; at Thromboxane A2 receptor; in experiment [3]) was over 30 µM throughout. Further, the AC50 (in [4]; at Prothrombin) was over 30 µM each time.

Consider `CC(=O)N[C@@H](CS)C(=O)O` [ACETYLCYSTEINE], for which the AC50 (in experiment [5]; on Glucocorticoid receptor; in experiment [6]; at Vasopressin V1a receptor) was over 30 µM each time.

Take `C=CCNc1nc(NCC=C)nc(N2CCN(C(c3ccc(F)cc3)c3ccc(F)cc3)CC2)n1` [ALMITRINE]: the AC50 (in experiment [5]; at Glucocorticoid receptor; on Vasopressin V1a receptor) was over 30 µM throughout.

Take `C=CCSCC1Nc2cc(Cl)c(S(N)(=O)=O)cc2S(=O)(=O)N1` (stereo not given) [ALTHIAZIDE]: the AC50 (in experiment [1]; at Acetylcholinesterase; at D(3) dopamine receptor; in experiment [2]; on Thromboxane A2 receptor; in [3]) was over 30 µM in each case. In addition, the AC50 (in [4]; on Prothrombin) was over 30 µM each time.

In the case of `C/N=C(\NC)NCc1ccccc1` [BETHANIDINE], the AC50 (in experiment [5]; on Glucocorticoid receptor; in experiment [6]; on Vasopressin V1a receptor) was over 30 µM in each case.

Regarding `CCC(C)C1(CC)C(=O)NC(=O)NC1=O` (stereo not given) [BUTABARBITAL], the AC50 (in experiment [5]; at Glucocorticoid receptor; in [6]; at Vasopressin V1a receptor) was over 30 µM in each case.

Consider `COCC1=C(C(=O)O)N2C(=O)[C@@H](NC(=O)/C(=N\OC)c3csc(N)n3)[C@H]2SC1` [CEFPODOXIME], for which the AC50 (in experiment [5]; on Glucocorticoid receptor; in [6]; at Vasopressin V1a receptor) was over 30 µM in each case.

`COc1cc(N)c(Cl)cc1C(=O)NC1CCN(Cc2ccccc2)CC1` [CLEBOPRIDE]: the AC50 in experiment [5] is over 30 µM; at Glucocorticoid receptor, over 30 µM; in [6], 14 µM; at Vasopressin V1a receptor, over 30 µM.

`C[C@]12CCC(=O)C(O)=C1CC[C@@H]1[C@@H]2CC[C@]2(C)C(=O)CC[C@@H]12` [FORMESTANE]: the AC50 (in experiment [5]; at Glucocorticoid receptor; in experiment [6]; on Vasopressin V1a receptor) was over 30 µM throughout.

With `C[C@]12CC[C@@H]3c4ccc(O)cc4C[C@@H](CCCCCCCCC[S+]([O-])CCCC(F)(F)C(F)(F)F)[C@H]3[C@@H]1CC[C@@H]2O` (stereo not given in full) [FULVESTRANT], the AC50 in [5] was over 30 µM; on Glucocorticoid receptor it was 1.1 µM; in [6], over 30 µM; at Vasopressin V1a receptor, over 30 µM.

Consider `Oc1ccc2c(c1)CC[C@H](c1ccccc1)[C@@H]2c1ccc(OCCN2CCCC2)cc1` [LASOFOXIFENE], for which the values for the AC50 (on Glucocorticoid receptor; in experiment [6]; on Vasopressin V1a receptor) were 9.3 µM, 12 µM and over 30 µM, respectively.

As to `CC(C(=O)O)c1ccc(CC2CCCC2=O)cc1` (stereo not given) [LOXOPROFEN], the AC50 in [5] and in [6] was over 30 µM each time.

As for `CN(C)CCCNc1c2ccccc2nc2cccc([N+](=O)[O-])c12` [NITRACRINE], the AC50 is over 30 µM in experiment [5], over 30 µM at Glucocorticoid receptor, 6.7 µM in [6] and over 30 µM at Vasopressin V1a receptor.

Turning to `C#C[C@]1(OC(C)=O)CC[C@H]2[C@@H]3CCC4=C/C(=N/O)CC[C@@H]4[C@H]3CC[C@@]21CC` [NORGESTIMATE], the AC50 in [5] was over 30 µM; on Glucocorticoid receptor, 0.041 µM; in experiment [6] it was over 30 µM; at Vasopressin V1a receptor, over 30 µM.

In the case of `Clc1ccc2c(N3CCN(CCCN4CCN(c5ccnc6cc(Cl)ccc56)CC4)CC3)ccnc2c1` [PIPERAQUINE], the AC50 (in experiment [5]; at Glucocorticoid receptor; in experiment [6]; on Vasopressin V1a receptor) was over 30 µM throughout.

Take `COc1ccc(CN(CCN(C)C)c2ccccn2)cc1` [PYRILAMINE]: the AC50 in [1] was over 30 µM; on Acetylcholinesterase it was over 30 µM; in experiment [2], over 30 µM; on Thromboxane A2 receptor, over 30 µM; in [3], over 30 µM; in experiment [4], 8.61 µM. At Prothrombin, the AC50 is over 30 µM.

With `CC1(C)S[C@@H]2[C@H](NC(=O)[C@H](N)c3ccccc3)C(=O)N2[C@H]1C(=O)OCOC(=O)[C@@H]1N2C(=O)C[C@H]2S(=O)(=O)C1(C)C` [SULTAMICILLIN], the AC50 (in [5]; at Glucocorticoid receptor; in experiment [6]; on Vasopressin V1a receptor) was over 30 µM in each case.

Turning to `Cc1cccc(N2CC(CO)OC2=O)c1` (stereo not given) [TOLOXATONE], the AC50 (in experiment [5]; at Glucocorticoid receptor; in [6]; on Vasopressin V1a receptor) was over 30 µM throughout.

`CCC(C)C(CC)C(N)=O` (stereo not given) [VALNOCTAMIDE]: the AC50 (in [5]; on Glucocorticoid receptor; in experiment [6]; on Vasopressin V1a receptor) was over 30 µM in each case.

With `CCOC(=O)C1=C[C@]2(CC)CCCN3CCc4c(n1c1ccccc41)[C@@H]32` [VINPOCETINE], the AC50 is 13 µM in experiment [5], over 30 µM on Glucocorticoid receptor, over 30 µM in experiment [6] and over 30 µM at Vasopressin V1a receptor.

As to `Cc1cc(C(C)(C)C)cc(C)c1CC1=NCCN1` [XYLOMETAZOLINE], the AC50 was 1.16 µM in experiment [5], over 30 µM at Glucocorticoid receptor and over 30 µM on Vasopressin V1a receptor.

For the origin of these results see ChEMBL document CHEMBL5291721, “A preclinical secondary pharmacology resource illuminates target-adverse drug reaction associations of marketed drugs” (Nat Commun, 2023).
